# Where two headings read alike, the source gives them in different places.
# What was measured:
# [1] = test system: S. pneumoniae; experiment: MIC, broth micro-dilution (CLSI); type: cell-based, Streptococcus pneumoniae; details: for MIC90 / MIC / MIC50: Streptococcus pneumoniae
# [2] = test system: S. aureus; experiment: MIC, broth micro-dilution (CLSI); type: cell-based, Staphylococcus aureus; details: Staphylococcus aureus; for MIC: read-out: MIC
# [3] = S1 Table isolates, 5% FBS + 3% washed RBC
# [4] = ATCC6303, ATCC 6303 (serotype 3), 5% FBS + 3% washed RBC
# [5] = D39/D39LUX (serotype 2), 5% FBS
# [6] = ATCC 29213 / MSSA, ATCC29213 MSSA (ST5), absence of FBS
# [7] = IRISH 1 – HA-EMRSA (ST8), absence of FBS
# [8] = IRISH 2 – HA-EMRSA (ST8), absence of FBS
# [9] = MRSA / USA300, USA 300 - MRSA (ST8), absence of FBS
# [10] = MRSA, AUS2-MRSA (ST239), absence of FBS
# [11] = MRSA, AUS3-MRSA (ST239), absence of FBS
# [12] = MRSA, BENGAL BAY PVL+ – CA-MRSA (ST772), absence of FBS
# [13] = MRSA, Classic–HA-MRSA (ST250), absence of FBS
# [14] = MRSA, NY JAPAN – HA MRSA (ST5), absence of FBS
# [15] = MRSA, QLD PVL+ –CA-MRSA (ST93), absence of FBS
# [16] = MRSA, ST398–CA-MRSA-V (ST398), absence of FBS
# [17] = MRSA, WSPP – PVL neg CA MRSA (ST30), absence of FBS
# [18] = S2 Table isolates, absence of FBS
# [19] = TAIWAN PVL+ – CA-cMRSA (ST59), absence of FBS
# [20] = UK 15 PVL+ – HA-EMRSA (ST22), absence of FBS
# [21] = UK 15 – HA-EMRSA (ST22), absence of FBS
# [22] = UK 16 – HA- EMRSA (ST36), absence of FBS
# [23] = UK 17 – HA-EMRSA (ST247), absence of FBS
smiles,measurement,setting,value
"CCCCCCCCCC(=O)N[C@@H](Cc1c[nH]c2ccccc12)C(=O)N[C@H](CC(N)=O)C(=O)N[C@@H](CC(=O)O)C(=O)N[C@@H]1C(=O)NCC(=O)N[C@@H](CCCN)C(=O)N[C@@H](CC(=O)O)C(=O)N[C@H](C)C(=O)N[C@@H](CC(=O)O)C(=O)NCC(=O)N[C@H](CO)C(=O)N[C@@H]([C@H](C)CC(=O)O)C(=O)N[C@@H](CC(=O)c2ccccc2N)C(=O)O[C@@H]1C [Daptomycin, daptomycin]",MIC range,[1]; [3],0.125 to 0.5 µg/mL
same,MIC90,[1]; 21 isolates,0.5 µg/mL
same,MIC,"[1]; A66.1 (serotype 3), 5% FBS",0.25 µg/mL
same,MIC,[1]; [4],0.25 µg/mL
same,MIC,[1]; [5],0.25 µg/mL
same,MIC,"[1]; D39/D39LUX (serotype 2), 10% FBS",0.25 µg/mL
same,MIC,"[1]; EF3030 (serotype 19F), 5% FBS",0.25 µg/mL
same,MIC,"[1]; L82016 (serotype 6B), 5% FBS",0.25 µg/mL
same,MIC,"[1]; P9 (serotype 6A), 5% FBS",0.25 µg/mL
same,MIC,"[1]; P21 (serotype 3), 5% FBS",0.25 µg/mL
same,MIC50,"[1]; S1 Table isolates, 5% FBS",0.25 µg/mL
same,MIC90,"[1]; S1 Table isolates, 5% FBS",0.25 µg/mL
same,MIC,"[1]; TIGR4 (serotype 4), 5% FBS",0.25 µg/mL
same,MIC,"[1]; WCH16 (serotype 6A), 5% FBS",0.25 µg/mL
same,MIC,"[1]; WCH43 (serotype 4), 5% FBS",0.25 µg/mL
same,MIC,"[1]; WCH46 (serotype 4), 5% FBS",0.125 µg/mL
same,MIC,"[1]; WCH57 (serotype 8), 5% FBS",0.25 µg/mL
same,MIC,"[1]; WCH77 (serotype 5), 5% FBS",0.5 µg/mL
same,MIC,"[1]; WCH86 (serotype 4), 5% FBS",0.125 µg/mL
same,MIC,"[1]; WCH89 (serotype 7), 5% FBS",0.5 µg/mL
same,MIC,"[1]; WCH92 (serotype 4), 5% FBS",0.125 µg/mL
same,MIC,"[1]; WCH137 (serotype 6A), 5% FBS",0.125 µg/mL
same,MIC,"[1]; WCH158 (serotype 19F), 5% FBS",0.125 µg/mL
same,MIC,"[1]; WCH184 (serotype 19F), 5% FBS",0.25 µg/mL
same,MIC,"[1]; WCH211 (serotype 11), 5% FBS",0.25 µg/mL
same,MIC,"[1]; WU2 (serotype 3), 5% FBS",0.125 µg/mL
same,MIC90,[2]; 23 isolates,0.5 µg/mL
same,MIC,"[2]; ATCC 12600 / MSSA, ATCC12600 [Xen29] (MSSA), 10% FBS",0.5 µg/mL
same,MIC,"[2]; ATCC 12600 / MSSA, ATCC12600 [Xen29] (MSSA), absence of FBS",0.5 µg/mL
same,MIC,[2]; [6],0.5 µg/mL
same,MIC,"[2]; ATCC 49775 / MSSA, ATCC 49775 (MSSA), absence of FBS",0.5 µg/mL
same,MIC,[2]; [7],0.5 µg/mL
same,MIC,[2]; [8],0.5 µg/mL
same,MIC,[2]; [9],0.5 µg/mL
same,MIC,[2]; [10],1 µg/mL
same,MIC,[2]; [11],0.5 µg/mL
same,MIC,[2]; [12],0.5 µg/mL
same,MIC,[2]; [13],0.5 µg/mL
same,MIC,[2]; [14],0.5 µg/mL
same,MIC,[2]; [15],0.25 µg/mL
same,MIC,[2]; [16],0.5 µg/mL
same,MIC,[2]; [17],0.5 µg/mL
same,MIC50,[2]; [18],0.5 µg/mL
same,MIC90,[2]; [18],0.5 µg/mL
same,MIC,[2]; [19],0.5 µg/mL
same,MIC,[2]; [20],0.5 µg/mL
same,MIC,[2]; [21],0.5 µg/mL
same,MIC,[2]; [22],0.5 µg/mL
same,MIC,[2]; [23],0.5 µg/mL
CC1(C)S[C@@H]2[C@H](NC(=O)[C@H](N)c3ccccc3)C(=O)N2[C@H]1C(=O)O [Ampicillin],MIC range,[1]; [3],0.06 to 1 µg/mL
same,MIC90,[1]; 21 isolates,0.5 µg/mL
same,MIC,"[1]; A66.1 (serotype 3), 5% FBS",0.125 µg/mL
same,MIC,[1]; [4],0.125 µg/mL
same,MIC,[1]; [5],0.125 µg/mL
same,MIC,"[1]; EF3030 (serotype 19F), 5% FBS",0.5 µg/mL
same,MIC,"[1]; L82016 (serotype 6B), 5% FBS",0.06 µg/mL
same,MIC,"[1]; P9 (serotype 6A), 5% FBS",0.06 µg/mL
same,MIC,"[1]; P21 (serotype 3), 5% FBS",0.06 µg/mL
same,MIC50,"[1]; S1 Table isolates, 5% FBS",0.125 µg/mL
same,MIC90,"[1]; S1 Table isolates, 5% FBS",0.5 µg/mL
same,MIC,"[1]; TIGR4 (serotype 4), 5% FBS",0.125 µg/mL
same,MIC,"[1]; WCH16 (serotype 6A), 5% FBS",1 µg/mL
same,MIC,"[1]; WCH43 (serotype 4), 5% FBS",0.125 µg/mL
same,MIC,"[1]; WCH46 (serotype 4), 5% FBS",0.125 µg/mL
same,MIC,"[1]; WCH57 (serotype 8), 5% FBS",0.5 µg/mL
same,MIC,"[1]; WCH77 (serotype 5), 5% FBS",0.5 µg/mL
same,MIC,"[1]; WCH86 (serotype 4), 5% FBS",0.06 µg/mL
same,MIC,"[1]; WCH89 (serotype 7), 5% FBS",0.125 µg/mL
same,MIC,"[1]; WCH92 (serotype 4), 5% FBS",0.5 µg/mL
same,MIC,"[1]; WCH137 (serotype 6A), 5% FBS",0.06 µg/mL
same,MIC,"[1]; WCH158 (serotype 19F), 5% FBS",0.125 µg/mL
same,MIC,"[1]; WCH184 (serotype 19F), 5% FBS",0.125 µg/mL
same,MIC,"[1]; WCH211 (serotype 11), 5% FBS",0.125 µg/mL
same,MIC,"[1]; WU2 (serotype 3), 5% FBS",0.125 µg/mL
same,MIC90,[2]; 23 isolates,> 16 µg/mL
same,MIC,[2]; [6],2 µg/mL
same,MIC,[2]; [7],> 16 µg/mL
same,MIC,[2]; [8],> 16 µg/mL
same,MIC,[2]; [9],> 16 µg/mL
same,MIC,[2]; [10],> 16 µg/mL
same,MIC,[2]; [11],> 16 µg/mL
same,MIC,[2]; [12],8 µg/mL
same,MIC,[2]; [13],> 16 µg/mL
same,MIC,[2]; [14],> 16 µg/mL
same,MIC,[2]; [15],> 16 µg/mL
same,MIC,[2]; [16],> 16 µg/mL
same,MIC,[2]; [17],> 16 µg/mL
same,MIC50,[2]; [18],> 16 µg/mL
same,MIC90,[2]; [18],> 16 µg/mL
same,MIC,[2]; [19],8 µg/mL
same,MIC,[2]; [20],16 µg/mL
same,MIC,[2]; [21],> 16 µg/mL
same,MIC,[2]; [22],> 16 µg/mL
same,MIC,[2]; [23],> 16 µg/mL

# Source: publication PMC5584945, “Evaluation of robenidine analog NCL195 as a novel broad-spectrum antibacterial agent” (PLoS ONE, 2017)
